Assays:
SVOP-FLAG [1] = target: T1, SVOP-FLAG (Rattus norvegicus, UniProt Q9Z2I7); experiment: competition with 8-azido-ATP[γ] biotin photoaffinity labeling, western blot; assay type: binding; conditions: read-out: half maximum inhibition concentration
T1 construct: full length (548 residues), C-terminal FLAG tag (DYKDDDK) kept; expressed in HEK293, purified on anti-FLAG M2 gel
T1 sequence (Q9Z2I7 1-548): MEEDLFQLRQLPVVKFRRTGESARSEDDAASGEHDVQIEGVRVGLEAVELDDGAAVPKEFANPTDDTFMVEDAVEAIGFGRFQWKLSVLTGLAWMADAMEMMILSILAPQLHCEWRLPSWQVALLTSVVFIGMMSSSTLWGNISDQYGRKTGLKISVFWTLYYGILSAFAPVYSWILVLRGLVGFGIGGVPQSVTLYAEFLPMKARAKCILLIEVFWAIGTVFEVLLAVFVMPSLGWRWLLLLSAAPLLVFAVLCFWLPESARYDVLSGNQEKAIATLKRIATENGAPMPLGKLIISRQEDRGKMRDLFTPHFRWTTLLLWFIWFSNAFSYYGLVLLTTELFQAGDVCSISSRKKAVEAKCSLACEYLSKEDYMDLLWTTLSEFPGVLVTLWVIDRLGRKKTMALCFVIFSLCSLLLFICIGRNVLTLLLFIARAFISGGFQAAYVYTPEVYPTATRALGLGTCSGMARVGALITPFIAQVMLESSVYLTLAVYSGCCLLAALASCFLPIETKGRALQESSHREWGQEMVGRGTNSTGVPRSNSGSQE

SVOP-FLAG [2] = target: T1, SVOP-FLAG; experiment: as above; assay type: binding; conditions: 100 µM 8-azido-ATP[γ] biotin, pH 7.4, on ice

Row | IC50 (SVOP-FLAG [1]) | Structure (SMILES) | decrease of labeling at 1 mM (SVOP-FLAG [2])
1 | ~750 µM | Nc1ncnc2c1ncn2[C@@H]1O[C@H](COP(=O)(O)OP(=O)(O)OP(=O)(O)O)[C@@H](O)[C@H]1O [ATP] | –
2 | – | Nc1ccn([C@@H]2O[C@H](COP(=O)(O)OP(=O)(O)OP(=O)(O)O)[C@@H](O)[C@H]2O)c(=O)n1 [CTP] | TTP and CTP produced the least inhibition
3 | – | Nc1nc2c(ncn2[C@@H]2O[C@H](COP(=O)(O)OP(=O)(O)OP(=O)(O)O)[C@@H](O)[C@H]2O)c(=O)[nH]1 [GTP] | ATP, GTP and NAD displayed the strongest inhibition
4 | ~250 µM | NC(=O)c1ccc[n+]([C@@H]2O[C@H](COP(=O)(O)OP(=O)(O)OC[C@H]3O[C@@H](n4cnc5c(N)ncnc54)[C@H](O)[C@@H]3O)[C@@H](O)[C@H]2O)c1 [NAD] | –
5 | – | Cc1cn([C@H]2C[C@H](O)[C@@H](COP(=O)(O)OP(=O)(O)OP(=O)(O)O)O2)c(=O)[nH]c1=O [TTP] | TTP and CTP produced the least inhibition

— publication PMC2669215, “SVOP Is a Nucleotide Binding Protein” (PLoS ONE, 2009)
